Results: patent US20250257061A1, “COMPOSITIONS AND METHODS FOR TREATING CANCER AND REDUCING WNT MEDIATED EFFECTS” (StemSynergy Therapeutics, Inc., priority 2024, published 2025)
Where two headings read alike, the source gives them in different places.

Assays:
[1] = test system: Wnt reporter (TCF/LEF1 promoter); experiment: HEK STF293 Wnt reporter (TOPFlash) luciferase assay, Steady Glo normalised to Cell Titer; assay type: cell-based, human; conditions: Examples for Formulae (IV), (V), (VI), and (VII), HEK STF293 cells, Wnt3a-conditioned media, read-out: TOPFlash IC50 category
Procedure: All compounds were tested using the human cell line HEK STF293. This cell line carries a Wnt reporter (TCF/LEF1 promoter), which drives expression of the firefly luciferase protein. The level of Wnt activity is directly correlated with the level of luciferase activity (determined using a simple assay). Compounds that inhibit Wnt signaling by reducing luciferase activity in these two cell lines are further tested biochemically. […] Compounds were further tested in a Viability assay using Wnt-dependent HCT116 cell line. Compounds were prepared as 10 mM stocks for each compound in DMSO. Dilutions were prepared in a 96-well plate in DMSO. The stock dilutions are as follows: 10 mM, 1 mM, 100 μM, 10 μM, 100 nM, and 10 nM. Plates were sealed and stored at −20° C. […] On the first day, Wnt3a-conditioned media (1:1) were added along with diluted compounds (1:100). […] The final concentrations should therefore be 100 μM, 10 μM, 1 μM, 100 nM, 10 nM, and 1 nM. On the second day, the media was removed and 75 μL of Passive Lysis Buffer (Promega) is added to each well. The plate was shaken at 130 rpm for 15 minutes. For the Steady Glo assay, 45 μL of the lysis was removed and added to a white 96-well plate containing 45 μL/well of Steady Glo solution (Promega). For the Cell Titer assay, 25 μL of the lysis was transferred to a white 96-well plate containing 25 μL/well of Cell Titer solution (Promega). Both Steady Glo and Cell Titer assays were read with a luminescence plate reader. When determining EC50, the Steady Glo values were divided by the Cell Titer values to normalize for cell number. All compounds were tested using the human cell line HEK STF293. This cell line carries a Wnt reporter (TCF/LEF1 promoter), which drives expression of the firefly luciferase protein. The level of Wnt activity is directly correlated with the level of luciferase activity (determined using a simple assay). Compounds that inhibit Wnt signaling by reducing luciferase activity in these two cell lines are further tested biochemically. […] Compounds were further tested in a Viability assay using Wnt-dependent HCT116 cell line. Compounds were prepared as 10 mM stocks for each compound in DMSO. Dilutions were prepared in a 96-well plate in DMSO. The stock dilutions are as follows: 10 mM, 1 mM, 100 μM, 10 μM, 100 nM, and 10 nM. Plates were sealed and stored at −20° C. […] On the first day, Wnt3a-conditioned media (1:1) were added along with diluted compounds (1:100). […] The final concentrations should therefore be 100 μM, 10 μM, 1 μM, 100 nM, 10 nM, and 1 nM. On the second day, the media was removed and 75 μL of Passive Lysis Buffer (Promega) is added to each well. The plate was shaken at 130 rpm for 15 minutes. For the Steady Glo assay, 45 μL of the lysis was removed and added to a white 96-well plate containing 45 μL/well of Steady Glo solution (Promega). For the Cell Titer assay, 25 μL of the lysis was transferred to a white 96-well plate containing 25 μL/well of Cell Titer solution (Promega). Both Steady Glo and Cell Titer assays were read with a luminescence plate reader. When determining EC50, the Steady Glo values were divided by the Cell Titer values to normalize for cell number. All compounds were tested using the human cell line HEK STF293. This cell line carries a Wnt reporter (TCF/LEF1 promoter), which drives expression of the firefly luciferase protein. The level of Wnt activity is directly correlated with the level of luciferase activity (determined using a simple assay). Compounds that inhibit Wnt signaling by reducing luciferase activity in these two cell lines are further tested biochemically. […] Compounds were further tested in a Viability assay using Wnt-dependent HCT116 cell line. Compounds were prepared as 10 mM stocks for each compound in DMSO. Dilutions were prepared in a 96-well plate in DMSO. The stock dilutions are as follows: 10 mM, 1 mM, 100 μM, 10 μM, 100 nM, and 10 nM. Plates were sealed and stored at −20° C. […]

[2] = test system: Wnt-dependent HCT116 cell line; experiment: Viability assay using Wnt-dependent HCT116 cell line (Cell Titer Glo); assay type: cell-based; conditions: Examples for Formulae (IV), (V), (VI), and (VII), HCT116 cells, read-out: Viability IC50 category
Procedure: All compounds were tested using the human cell line HEK STF293. This cell line carries a Wnt reporter (TCF/LEF1 promoter), which drives expression of the firefly luciferase protein. The level of Wnt activity is directly correlated with the level of luciferase activity (determined using a simple assay). Compounds that inhibit Wnt signaling by reducing luciferase activity in these two cell lines are further tested biochemically. […] Compounds were further tested in a Viability assay using Wnt-dependent HCT116 cell line. HEK293 cells were seeded in a 6-well plate at approximately 8.0×10^5 cells (2 mL per well). On the first day, Wnt3a-conditioned media (1:1) and compounds (1:100) were added to the plated cells. The final concentrations of compounds were 1 μM, 500 nM, and 100 nM. Vehicle (DMSO) and a Wnt3a-conditioned media plus Vehicle samples were also prepared as controls. Lysates were collected (with non-denaturing lysis buffer) after 24 hours incubation, and protein concentrations determined by Bradford Assay. Immunoblotting with an anti-beta-catenin antibody (equivalent amounts of protein/lane for each condition) were subsequently performed to determine beta-catenin levels. HCT116 cells were seeded at 2,500 cells/well in a 96-well dish (Volume: 100 μL/well). On the second day, the 10 mM stock solution of each test compound was thawed at room temperature. Dilutions of the test compound were prepared in DMSO in a V-bottom 96-well plate. The stock compound solution, DMSO-diluted compound solutions, and DMSO were further diluted 500-fold in cell culture media, and 100 μL of the compound- or DMSO-containing cell culture media was added to each well of the cells. […] The final DMSO concentration was 0.1% in all wells. On the fifth day, 150 μL of media was removed from each well. 50 μL/well Cell Titer Glo reagent (Promega) was added to each well. The plate was shaken at 130 rpm for 15 minutes at room temperature, and the cell viability was determined using a luminescence plate reader. All compounds were tested using the human cell line HEK STF293. This cell line carries a Wnt reporter (TCF/LEF1 promoter), which drives expression of the firefly luciferase protein. The level of Wnt activity is directly correlated with the level of luciferase activity (determined using a simple assay). Compounds that inhibit Wnt signaling by reducing luciferase activity in these two cell lines are further tested biochemically. […] Compounds were further tested in a Viability assay using Wnt-dependent HCT116 cell line. HEK293 cells were seeded in a 6-well plate at approximately 8.0×10^5 cells (2 mL per well). On the first day, Wnt3a-conditioned media (1:1) and compounds (1:100) were added to the plated cells. The final concentrations of compounds were 1 μM, 500 nM, and 100 nM. Vehicle (DMSO) and a Wnt3a-conditioned media plus Vehicle samples were also prepared as controls. Lysates were collected (with non-denaturing lysis buffer) after 24 hours incubation, and protein concentrations determined by Bradford Assay. Immunoblotting with an anti-beta-catenin antibody (equivalent amounts of protein/lane for each condition) were subsequently performed to determine beta-catenin levels. HCT116 cells were seeded at 2,500 cells/well in a 96-well dish (Volume: 100 μL/well). On the second day, the 10 mM stock solution of each test compound was thawed at room temperature. Dilutions of the test compound were prepared in DMSO in a V-bottom 96-well plate. The stock compound solution, DMSO-diluted compound solutions, and DMSO were further diluted 500-fold in cell culture media, and 100 μL of the compound- or DMSO-containing cell culture media was added to each well of the cells. […] The final DMSO concentration was 0.1% in all wells. On the fifth day, 150 μL of media was removed from each well. 50 μL/well Cell Titer Glo reagent (Promega) was added to each well. The plate was shaken at 130 rpm for 15 minutes at room temperature, and the cell viability was determined using a luminescence plate reader. […]

Row | SMILES | IC50 ([1]; Homo sapiens, STF/293) | IC50 ([2]; Homo sapiens, HCT-116) | IC50 [1] | IC50 [2]
1 | CN(C(=O)c1ccccc1F)c1ncc(C(=O)Nc2nc(-c3ccccn3)cs2)o1 [Example 36] | 0.2 to 0.5 µM | 0.5 to 1 µM |  | 
2 | CN(c1ncc(C(=O)O)o1)S(=O)(=O)c1ccc(Cl)cc1 [Example 37] |  |  | < 0.2 µM | 0.2 to 0.5 µM
3 | CN(c1ncc(C(=O)Nc2nc(-c3ccccn3)cs2)o1)S(=O)(=O)c1ccc(Cl)cc1 [Example 38] |  |  | 0.2 to 0.5 µM | 0.5 to 1 µM
4 | COc1ccc(S(=O)(=O)N(C)c2ncc(C(=O)Nc3nc(-c4ccccn4)cs3)o2)cc1 [Example 39] | 0.5 to 1 µM | 0.5 to 1 µM |  | 
5 | COc1ccc(S(=O)(=O)N(C)c2ncc(C(=O)O)o2)cc1 [Example 40] |  |  | 0.2 to 0.5 µM | 0.2 to 0.5 µM
6 | CN(C)C(=O)c1ccc(-c2ncoc2C(=O)Nc2nc(-c3ccccn3)cs2)cc1 [Example 41] | 0.5 to 1 µM | 0.5 to 1 µM |  | 
7 | O=C(Nc1nc(-c2ccccn2)cs1)c1ocnc1-c1ccc(C(=O)N2CCOCC2)cc1 [Example 42] | 0.5 to 1 µM | 0.5 to 1 µM |  | 
8 | CN(c1ncc(C(=O)O)o1)S(=O)(=O)c1ccc(C(F)(F)F)cc1 [Example 43] |  |  | < 0.2 µM | < 0.2 µM
9 | CS(=O)(=O)c1ccccc1-c1ncoc1C(=O)Nc1nc(-c2ccccn2)cs1 [Example 44] |  |  | 1 to 10 µM | 0.5 to 1 µM
10 | CN1CCN(c2cccc(-c3ncoc3C(=O)Nc3nc(-c4ccccn4)cs3)c2)CC1 [Example 45] |  |  | 1 to 10 µM | 1 to 10 µM
11 | COc1cc(F)ccc1-c1ncoc1C(=O)Nc1nc(-c2ccccn2)cs1 [Example 46] |  |  | 0.5 to 1 µM | 0.5 to 1 µM
12 | CS(=O)(=O)c1ccc(F)cc1-c1ncoc1C(=O)Nc1nc(-c2ccccn2)cs1 [Example 47] | 0.5 to 1 µM | 0.2 to 0.5 µM |  | 
13 | CS(=O)(=O)c1cccc(-c2ncoc2C(=O)Nc2nc(-c3ccccn3)cs2)c1 [Example 48] |  |  | 0.5 to 1 µM | 0.2 to 0.5 µM
14 | Cc1nc(N(C)S(=O)(=O)c2ccccc2Cl)oc1C(=O)Nc1nc(-c2ccccn2)cs1 [Example 49] | 0.2 to 0.5 µM | 0.5 to 1 µM |  | 
15 | Cc1nc(N(C)S(=O)(=O)c2ccc(C(F)(F)F)cc2)oc1C(=O)Nc1nc(-c2ccccn2)cs1 [Example 50] |  |  | 0.2 to 0.5 µM | 0.2 to 0.5 µM
16 | Cc1nc(N(C)S(=O)(=O)c2cccc(Cl)c2)oc1C(=O)Nc1nc(-c2ccccn2)cs1 [Example 51] | 0.5 to 1 µM | 0.5 to 1 µM |  | 
17 | Cc1nc(N(C)S(=O)(=O)c2ccc(Cl)cc2)oc1C(=O)Nc1nc(-c2ccccn2)cs1 [Example 52] | 0.5 to 1 µM | 0.5 to 1 µM |  | 
18 | CN(c1nc(C(F)(F)F)c(C(=O)Nc2nc(-c3ccccn3)cs2)o1)S(=O)(=O)c1ccc(Cl)cc1 [Example 53] |  |  | 0.5 to 1 µM | 0.5 to 1 µM
19 | CN(c1nc(C(F)(F)F)c(C(=O)Nc2nc(-c3ccccn3)cs2)o1)S(=O)(=O)c1ccc(F)cc1 [Example 54] | 1 to 10 µM | 1 to 10 µM |  | 
20 | CN(c1nc(C(F)(F)F)c(C(=O)Nc2nc(-c3ccccn3)cs2)o1)S(=O)(=O)c1ccc(C(F)(F)F)cc1 [Example 55] | 0.2 to 0.5 µM | 0.2 to 0.5 µM |  | 
21 | CN(c1nc(C(F)(F)F)c(C(=O)Nc2nc(-c3ccccn3)cs2)o1)S(=O)(=O)c1ccccc1Cl [Example 56] |  |  | 0.5 to 1 µM | 0.5 to 1 µM
22 | CCS(=O)(=O)N(C)c1nc(-c2ccc(F)cc2)c(C(=O)Nc2nc(-c3ccccn3)cs2)o1 [Example 57] | < 0.2 µM | < 0.2 µM |  | 
23 | CC(C)S(=O)(=O)N(C)c1nc(-c2ccc(F)cc2)c(C(=O)Nc2nc(-c3ccccn3)cs2)o1 [Example 58] | < 0.2 µM | < 0.2 µM |  | 
24 | CC(C)CS(=O)(=O)N(C)c1nc(-c2ccc(F)cc2)c(C(=O)Nc2nc(-c3ccccn3)cs2)o1 [Example 60] | < 0.2 µM | < 0.2 µM |  | 
25 | CN(c1nc(-c2ccc(F)cc2)c(C(=O)Nc2nc(-c3ccccn3)cs2)o1)S(=O)(=O)c1ccc(C(F)(F)F)cc1 [Example 61] |  |  | < 0.2 µM | < 0.2 µM
26 | Cc1onc(-c2ccc(C(F)(F)F)c(F)c2)c1C(=O)Nc1nc(-c2ccccn2)cs1 [Example 62] |  |  | 0.2 to 0.5 µM | < 0.2 µM
27 | Cc1onc(-c2ccc(C(F)(F)F)c(Cl)c2)c1C(=O)Nc1nc(-c2ccccn2)cs1 [Example 63] | 0.2 to 0.5 µM | 0.2 to 0.5 µM |  | 
28 | Cc1nnc(-c2ccc(-c3nc(C)oc3C(=O)Nc3nc(-c4ccccn4)cs3)cc2)o1 [Example 65] |  |  | < 0.2 µM | < 0.2 µM
29 | Cc1nc(-c2ccc(-c3nnc(C(F)(F)F)o3)cc2)c(C(=O)Nc2nc(-c3ccccn3)cs2)o1 [Example 66] |  |  | < 0.2 µM | < 0.2 µM
